This is an account of results in patent publication US20250388568A1, “NLRP3 INHIBITORS” (Kodiak Sciences Inc., priority 2022, published 2025).

Each structure is given as a SMILES string. Like-named read-outs stand apart in the source and are kept apart here. Where only a bound is given, the exact number is not on record here.

Test [1] concerns IL-1β release in THP-1-ASC-GFP cells after NLRP3 activation. Kind of test: IC50 determination of IL-1β release inhibition in THP-1-ASC-GFP cells. The class given is cell-based. As to conditions: THP1-ASC-GFP, read-out: IL-1β IC50 (nM) THP1 cells. The method, then:
Example 78: IC50 Determination of IL-1β Release Inhibition in THP-1-ASC-GFP Cells The compounds were tested for their ability to inhibit the IL-1β release in the THP-1-ASC-GFP cells after NLRP3 activation. THP1-ASC-GFP cells (Invivogen […] thawed following Invivogen's initial culture procedure. […] The growth medium was composed of RPM1640 medium (Gibco 32404-014), 10% heat inactivated (HI) serum (Gibco A3840102), Pen/Strep (Quality Biologics 118-089-721), 10 mM Hepes (Quality Biologics 118-089-721), 2 mM Glutamax (GIBCO 35050-061), 100 μg/mL normocin (Invivogen ant-nr), 100 μg/mL Zeocin (Invivogen ant-zn). The growth medium was freshly prepared once a week and sterile filtered. Assay medium consisted of RPMI 1640 medium, 10 mM Hepes, 2 mM Glutamax and Pen/Strep. To the assay medium, 1 μg/mL LPS (Invivogen tlrl-3pelps) was added. A cell suspension was prepared with assay medium and LPS at 1.25M cells per mL. With an electronic pipet, 80 μl of cell suspension was added to U bottom 96 well polystyrene plates (VWR 10062-902) leaving columns 1 and 2 empty. The plates were placed in the incubator for 4 hours. […] DMSO). An hour prior to the end of LPS incubation, a separate 96 deep well plate, Plate B, was prepared with 400 μL of assay media per well, then 2 μL of the stock DMSO solution from Plate A was added to each corresponding well. Plate B was covered to avoid media evaporation. In a 50 mL tube, a solution of nigericin in assay media at […] concentration was prepared. To a new 96 deep well plate, Plate C, 200 μL of this nigericin containing media was dispensed to each well and […] of the test compounds from Plate A to each corresponding well was added. Plate C was covered to avoid media evaporation. After 4 hours of priming, all the media from the LPS treated THP-1 cells in the initial U bottom plate was removed manually. To this plate of primed cells, 80 μL/well test compounds from Plate B was added in duplicate columns (5 compounds tested per plate). The plate was placed in an incubator for 30 min. […] The plate was placed back in the incubator for 1 hour. At the end of 1 hour, the supernatant from this test plate was transferred to a new 96 well V bottom polypropylene plate which was frozen immediately at -80° C. The plate was transferred to -20° C. the next day and awaiting further determination of cytokine IL-1β level. The release of IL-1β into the cell media was determined by MSD® Multi-Spot Assay System (V-Plex, IL-1B kit, […]-4). Following the manufacture's protocol and using the Alternate Protocol 3, Dilute-In-Plate protocol specifically, the level of IL-1β in the above collected supernatant plate was measured as electrochemiluminescent signals. Using MSD DISCOVERY WORKBENCH® analysis software, the signals were converted to the concentration of IL-1β in each well. The IC50 values of the compounds were calculated using the Graph Pad Prism software based on the […] concentration determined. The detection range of IL-1β using MSD kit was approximately […] (based on various lots of standards purchased from MSD).

The test system of test [2] is IL-1β release in U937 cells after NLRP3 activation. Kind of test: IC50 determination of IL-1β release inhibition in U937 cells. As to conditions: Homo sapiens, read-out: IL-1β IC50 (nM) U937 cells. Format: cell-based. The procedure, abridged: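 PMA-differentiated U937 cells (90 h) were primed 5 h with 1 μg/mL LPS, pre-incubated 30 min with compound, then stimulated with nigericin for 1 h. Supernatant IL-1β was quantified by MSD electrochemiluminescence. IC50 was derived from IL-1β concentration, with duplicate wells per compound.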

[3] abbreviates: THP-1-ASC-GFP cells, LPS priming 4 h, nigericin, average of at least three experiments.
[4] abbreviates: U-937, PMA-differentiated U937 cells, LPS priming 5 h, nigericin, average of at least three experiments.

The term IC50 denotes the concentration that inhibits the measured activity by half.

For `CN(Cc1cc(S(=O)(=O)NC(=O)Nc2c3c(c(F)c4c2CCC4)CCC3)nn1C)CC1(O)CCC1` [Example 58, 3-(8-fluoro-1,2,3,5,6,7-hexahydro-s-indacen-4-yl)-1-[5-({[(1-hydroxycyclobutyl)methyl](methyl)amino}methyl)-1-methylpyrazol-3-ylsulfonyl]urea], the values for the IC50 in test [1] (setting [3]) and in test [2] (setting [4]) were 50 to 500 nM and 5 to 50 nM, respectively.
For `Cn1nc(S(=O)(=O)NC(=O)Nc2c3c(c(F)c4c2CCC4)CCC3)cc1CNCC1(O)CCC1` [Example 59, N-((8-fluoro-1,2,3,5,6,7-hexahydro-s-indacen-4-yl)carbamoyl)-5-((((1-hydroxycyclobutyl)methyl)amino)methyl)-1-methyl-1H-pyrazole-3-sulfonamide], in that order: 5 to 50 nM and 5 to 50 nM.
For `Cc1oc([S@](=N)(=O)NC(=O)Nc2c3c(c(F)c4c2CCC4)CCC3)cc1CNC(C)C` (single isomer, unassigned) [Example 29], in that order: under 5 nM and under 5 nM.
Consider `Cc1oc(S(=O)(=O)NC(=O)Nc2c3c(c(Cl)c4c2CCC4)CCC3)cc1CN(C)CC1(O)CCC1` [Example 48, N-((8-chloro-1,2,3,5,6,7-hexahydro-s-indacen-4-yl)carbamoyl)-4-((((1-hydroxycyclobutyl)methyl)(methyl)amino)methyl)-5-methylfuran-2-sulfonamide], for which the IC50 in test [1] (setting [3]) is under 5 nM; in test [2] (setting [4]), 5 to 50 nM.
For `Cn1nc(S(=O)(=O)NC(=O)Nc2c3c(c(F)c4c2CCC4)CCC3)cc1CN1CC[C@H](O)C1` [Example 60, (S)-N-((8-fluoro-1,2,3,5,6,7-hexahydro-s-indacen-4-yl)carbamoyl)-5-((3-hydroxypyrrolidin-1-yl)methyl)-1-methyl-1H-pyrazole-3-sulfonamide], in that order: 5 to 50 nM and 50 to 500 nM.
As to `Cc1oc(S(=O)(=O)NC(=O)Nc2c3c(c(F)c4c2CCC4)CCC3)cc1CN1CC[C@H](O)C1` [Example 38, (S)—N-((8-fluoro-1,2,3,5,6,7-hexahydro-s-indacen-4-yl)carbamoyl)-4-((3-hydroxypyrrolidin-1-yl)methyl)-5-methylfuran-2-sulfonamide], the IC50 in test [1] (4 h) lay within 5 to 50 nM; in test [2] (U-937, 5 h), 50 to 500 nM.
Consider `Cc1oc(S(=N)(=O)NC(=O)Nc2c3c(cc4c2CCC4)CCC3)cc1CNC(C)C` (stereo not shown) [Example 25, N-((1,2,3,5,6,7-hexahydro-s-indacen-4-yl)carbamoyl)-4-((isopropylamino)methyl)-5-methylfuran-2-sulfonimidamide], for which the IC50 in test [1] (4 h) is under 5 nM; in test [2] (U-937, 5 h) it was under 5 nM.
`Cc1oc([S@@](=N)(=O)NC(=O)Nc2c3c(c(F)c4c2CCC4)CCC3)cc1CNC(C)C` (single isomer, unassigned) [Example 28]: the IC50 in test [1] (setting [3]) and in test [2] (setting [4]) was 50 to 500 nM throughout.
As to `Cc1oc(S(=N)(=O)NC(=O)Nc2c3c(cc4c2CCC4)CCC3)cc1CN` (stereo not shown) [Example 24, 4-(aminomethyl)-N-((1,2,3,5,6,7-hexahydro-s-indacen-4-yl)carbamoyl)-5-methylfuran-2-sulfonimidamide], the results for the 50% inhibitory concentration (IC50) in test [1] (setting [3]) and in test [2] (setting [4]) were under 5 nM and 5 to 50 nM, respectively.
The matching figures for `Cc1oc(S(=O)(=O)NC(=O)Nc2c3c(c(F)c4c2CCC4)CCC3)cc1CN(C)CC1(O)CCCC1` [Example 37, N-((8-fluoro-1,2,3,5,6,7-hexahydro-s-indacen-4-yl)carbamoyl)-4-((((1-hydroxycyclopentyl)methyl)(methyl)amino)methyl)-5-methylfuran-2-sulfonamide]: under 5 nM and 5 to 50 nM.
For `Cc1oc(S(=N)(=O)NC(=O)Nc2c3c(cc4c2CCC4)CCC3)cc1CN(C)CC1(O)CCC1` (stereo not shown) [Example 12, N-((1,2,3,5,6,7-hexahydro-s-indacen-4-yl)carbamoyl)-4-((((1-hydroxycyclobutyl)methyl)(methyl)amino)methyl)-5-methylfuran-2-sulfonimidamide], in that order: under 5 nM and under 5 nM.
The matching figures for `CC(C)(O)c1cc(S(=O)(=O)NC(=O)Nc2c3c(c(F)c4c2CCC4)CCC3)oc1COC1CNC1` [Example 71, 5-((azetidin-3-yloxy)methyl)-N-((8-fluoro-1,2,3,5,6,7-hexahydro-s-indacen-4-yl)carbamoyl)-4-(2-hydroxypropan-2-yl)furan-2-sulfonamide]: under 5 nM and 5 to 50 nM.
As for `Cc1oc(S(=N)(=O)NC(=O)Nc2c3c(cc4c2CCC4)CCC3)cc1CNC(C)C` (single isomer, unassigned) [Example 27, N-((1,2,3,5,6,7-hexahydro-s-indacen-4-yl)carbamoyl)-4-((isopropylamino)methyl)-5-methylfuran-2-sulfonimidamide], the IC50 in test [1] (setting [3]) and in test [2] (setting [4]) was under 5 nM in each case.
With `Cn1nc(S(=O)(=O)NC(=O)Nc2c3c(c(F)c4c2CCC4)CCC3)cc1CN1CCC[C@H]1CO` [Example 62, (S)-N-((8-fluoro-1,2,3,5,6,7-hexahydro-s-indacen-4-yl)carbamoyl)-5-((2-(hydroxymethyl)pyrrolidin-1-yl)methyl)-1-methyl-1H-pyrazole-3-sulfonamide], the half-inhibitory concentration (IC50) in test [1] (setting [3]) and in test [2] (setting [4]) was 5 to 50 nM in each case.
As for `Cc1cc(S(=O)(=O)NC(=O)Nc2c3c(c(F)c4c2CCC4)CCC3)oc1CN1CC[C@H](O)C1` [Example 51, (S)-N-((8-fluoro-1,2,3,5,6,7-hexahydro-s-indacen-4-yl)carbamoyl)-5-((3-hydroxypyrrolidin-1-yl)methyl)-4-methylfuran-2-sulfonamide], the IC50 in test [1] (setting [3]) is under 5 nM; in test [2] (setting [4]), 5 to 50 nM.
The matching figures for `Cc1oc(S(=N)(=O)NC(=O)Nc2c3c(cc4c2CCC4)CCC3)cc1CN(C)CC1(O)CC1` (stereo not shown) [Example 11, N-((1,2,3,5,6,7-hexahydro-s-indacen-4-yl)carbamoyl)-4-((((1-hydroxycyclopropyl)methyl)(methyl)amino)methyl)-5-methylfuran-2-sulfonimidamide]: under 5 nM and 5 to 50 nM.
The matching figures for `N=S(=O)(NC(=O)Nc1c2c(cc3c1CCC3)CCC2)c1cc(CN2CC(O)C2)co1` (stereo not shown) [Example 1, N-((1,2,3,5,6,7-hexahydro-s-indacen-4-yl)carbamoyl)-4-((3-hydroxyazetidin-1-yl)methyl)furan-2-sulfonimidamide]: under 5 nM and 5 to 50 nM.
For `Cc1oc(S(=N)(=O)NC(=O)Nc2c3c(cc4c2CCC4)CCC3)cc1CN1CCC[C@H]1CO` (stereo partly drawn) [Example 8, N-((1,2,3,5,6,7-hexahydro-s-indacen-4-yl)carbamoyl)-4-(((S)-2-(hydroxymethyl)pyrrolidin-1-yl)methyl)-5-methylfuran-2-sulfonimidamide], in that order: under 5 nM and under 5 nM.
For the compound `Cc1oc(S(=N)(=O)NC(=O)Nc2c3c(cc4c2CCC4)CCC3)cc1CN1CC[C@@H](CO)C1` (stereo partly drawn) [Example 5, N-((1,2,3,5,6,7-hexahydro-s-indacen-4-yl)carbamoyl)-4-(((R)-3-(hydroxymethyl)pyrrolidin-1-yl)methyl)-5-methylfuran-2-sulfonimidamide], the IC50 in test [1] (setting [3]) and in test [2] (setting [4]) was under 5 nM throughout.
As to `CN(CC1(O)CCC1)C(=O)c1coc(S(=N)(=O)NC(=O)Nc2c3c(cc4c2CCC4)CCC3)c1` (stereo not shown) [Example 4, 5-(N-((1,2,3,5,6,7-hexahydro-s-indacen-4-yl)carbamoyl)sulfamidimidoyl)-N-((1-hydroxycyclobutyl)methyl)-N-methylfuran-3-carboxamide], the IC50 in test [1] (setting [3]) and in test [2] (setting [4]) was under 5 nM in each case.
